How the values were obtained:
AGS cells = test: Gastric cancer cell proliferation inhibitory activity (CellTiter Glo), AGS; assay type: cell-based; details: 72 hours, relative IC50
Description: (§1) Experiments were performed using four types of gastric cancer cell lines (AGS, SNU-1, KATO-III, and MKN45) to measure the cell proliferation inhibitory ability of each Example compound. For AGS cells, 90 µL of cell suspension was dispensed into a 96-well plate using F-12K (Gibco) medium containing 10 % FBS, followed by incubation in a cell incubator at 37 °C and 5 % CO2. For SNU-1 and MKN45 cells, 90 µL of cell suspension was dispensed into a 96-well plate using RPMI1640 (Gibco) medium containing 10 % FBS, followed by incubation in a cell incubator at 37 °C and 5 % CO2. For KATO-III cells, 90 uL of cell suspension was dispensed into a 96-well plate using IMDM (Gibco) medium containing 10 % FBS, followed by incubation in a cell incubator at 37 °C and 5 % CO2. The next day, each Example compound dissolved and diluted in DMSO across 9 concentration ranges and a DMSO control group were added at 10 µL to each 96-well plate and treated for 72 hours. After completion of the compound treatment, 100 µL of CellTiter Glo (Promega) reagent was added to each well of the 96-well plate, followed by shaking for 10 minutes and standing at room temperature for 10 minutes. Luminescence signals were measured after inserting the 96-well plate into an Envision plate reader (PerkinElmer). Relative IC50 values were calculated by fitting a dose-response curve using XLfit (IDBS Ltd) software.
(§2) The gastric cancer cell proliferation inhibitory activities of the Example compounds measured by the method described above were evaluated according to the following criteria, and the results are presented in Table 16.

SNU-1 = test: Gastric cancer cell proliferation inhibitory activity (CellTiter Glo), SNU-1; assay type: cell-based; details: 72 hours, relative IC50
Description: as §1, §2

KATO-III cells = test: Gastric cancer cell proliferation inhibitory activity (CellTiter Glo), KATO-III; assay type: cell-based; details: 72 hours, relative IC50
Description: as §1, §2

MKN45 cells = test: Gastric cancer cell proliferation inhibitory activity (CellTiter Glo), MKN45; assay type: cell-based; details: 72 hours, relative IC50
Description: as §1, §2

CDK13 = CDK13 (Homo sapiens, UniProt Q14004); test: CDK13 kinase inhibitory activity assay (33P-ATP filter binding); assay type: biochemical; details: kinase reaction 120 minutes, 33P-gamma-ATP; read-out: CDK13 IC50
Sequence of CDK13 (Q14004 whole entry, species assumed): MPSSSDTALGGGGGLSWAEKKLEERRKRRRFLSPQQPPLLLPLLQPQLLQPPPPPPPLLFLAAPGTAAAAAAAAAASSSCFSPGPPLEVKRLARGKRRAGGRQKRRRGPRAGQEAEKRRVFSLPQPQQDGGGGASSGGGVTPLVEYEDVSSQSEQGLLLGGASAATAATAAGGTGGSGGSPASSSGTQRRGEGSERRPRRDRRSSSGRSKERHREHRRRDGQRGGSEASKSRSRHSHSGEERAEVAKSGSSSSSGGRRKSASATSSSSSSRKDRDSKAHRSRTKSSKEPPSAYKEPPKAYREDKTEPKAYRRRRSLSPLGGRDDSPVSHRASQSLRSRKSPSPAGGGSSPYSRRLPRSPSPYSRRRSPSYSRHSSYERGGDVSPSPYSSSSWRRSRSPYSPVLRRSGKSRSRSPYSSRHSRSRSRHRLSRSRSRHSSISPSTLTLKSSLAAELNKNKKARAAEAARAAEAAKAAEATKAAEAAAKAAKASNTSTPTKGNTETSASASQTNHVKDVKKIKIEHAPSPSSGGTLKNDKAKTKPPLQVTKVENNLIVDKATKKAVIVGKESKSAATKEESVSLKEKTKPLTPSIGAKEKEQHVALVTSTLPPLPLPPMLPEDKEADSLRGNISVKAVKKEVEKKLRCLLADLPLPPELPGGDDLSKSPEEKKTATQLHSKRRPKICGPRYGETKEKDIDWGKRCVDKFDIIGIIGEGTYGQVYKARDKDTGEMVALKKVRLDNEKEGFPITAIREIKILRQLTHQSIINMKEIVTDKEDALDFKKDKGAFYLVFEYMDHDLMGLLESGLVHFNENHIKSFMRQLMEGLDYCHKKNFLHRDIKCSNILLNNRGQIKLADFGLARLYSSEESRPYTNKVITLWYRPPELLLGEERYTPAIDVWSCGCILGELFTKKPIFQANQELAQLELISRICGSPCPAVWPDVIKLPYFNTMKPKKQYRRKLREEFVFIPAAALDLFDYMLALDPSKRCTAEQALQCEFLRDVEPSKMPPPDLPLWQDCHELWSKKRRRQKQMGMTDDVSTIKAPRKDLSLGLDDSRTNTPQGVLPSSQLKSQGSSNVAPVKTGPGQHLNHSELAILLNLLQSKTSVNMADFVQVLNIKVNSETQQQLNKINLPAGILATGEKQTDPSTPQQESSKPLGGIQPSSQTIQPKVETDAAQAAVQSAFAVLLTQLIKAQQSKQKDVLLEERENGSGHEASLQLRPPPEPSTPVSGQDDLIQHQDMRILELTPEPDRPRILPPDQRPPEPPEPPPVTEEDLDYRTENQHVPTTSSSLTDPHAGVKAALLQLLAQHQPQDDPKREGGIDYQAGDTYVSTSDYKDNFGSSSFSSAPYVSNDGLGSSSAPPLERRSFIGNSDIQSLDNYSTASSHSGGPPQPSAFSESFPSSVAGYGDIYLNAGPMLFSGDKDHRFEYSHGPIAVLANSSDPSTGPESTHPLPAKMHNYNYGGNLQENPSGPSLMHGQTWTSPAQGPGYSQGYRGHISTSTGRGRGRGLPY
Sequence of CDK13 (O75909 whole entry partner, species assumed): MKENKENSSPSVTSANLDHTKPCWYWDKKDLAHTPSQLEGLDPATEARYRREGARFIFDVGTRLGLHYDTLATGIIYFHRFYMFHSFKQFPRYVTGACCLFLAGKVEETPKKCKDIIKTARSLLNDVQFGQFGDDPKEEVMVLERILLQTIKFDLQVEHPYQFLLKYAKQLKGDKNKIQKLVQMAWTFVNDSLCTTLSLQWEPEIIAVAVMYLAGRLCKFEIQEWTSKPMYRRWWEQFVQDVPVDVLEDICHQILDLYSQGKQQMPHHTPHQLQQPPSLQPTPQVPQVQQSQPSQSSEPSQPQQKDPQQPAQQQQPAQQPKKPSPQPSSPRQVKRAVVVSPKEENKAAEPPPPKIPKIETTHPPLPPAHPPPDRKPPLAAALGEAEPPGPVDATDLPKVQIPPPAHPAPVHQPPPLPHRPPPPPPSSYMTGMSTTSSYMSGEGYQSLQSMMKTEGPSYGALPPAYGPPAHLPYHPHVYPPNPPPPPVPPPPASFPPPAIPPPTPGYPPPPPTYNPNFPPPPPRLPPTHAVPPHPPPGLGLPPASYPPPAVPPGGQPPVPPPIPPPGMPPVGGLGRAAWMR
How it was run: (§3)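 Compound in 9 concentrations pre-incubated 20 min with kinase and substrate, then ^33P-γ-ATP added and reacted 120 min at room temperature. Phosphorylated substrate captured on filter, washed with 0.75 % phosphoric acid and counted; activity as % of DMSO control, IC50 fitted.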

[1] = system: MDA-MB-231 breast cancer cells; test: Proliferation inhibitory activity assay against MDA-MB-231 breast cancer cells; assay type: cell-based; details: Homo sapiens, 72 hours, CellTiter Glo, relative IC50
How it was run: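 Cells grown in L-15 with 10% FBS at 37 °C, 0% CO2, then exposed next day to compounds at 9 concentrations (DMSO vehicle) for 72 h. Viability read by CellTiter Glo luminescence; relative IC50 from dose-response curve fit.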

HCC70 cells = test: Breast cancer cell proliferation inhibitory activity, HCC70; assay type: cell-based; details: Homo sapiens, 72 hours, CellTiter Glo, relative IC50
Description: (§4) Experiments were conducted using three types of breast cancer cell lines to measure the cell proliferation inhibitory ability of each Example compound. For HCC70 cells, 100 µL of cell suspension was dispensed into a 96-well plate using RPMI1640 (Invitrogen) medium containing 10 % FBS, followed by incubation in a cell incubator at 37 °C and 5 % CO2. For BT-20 cells, 100 µL of cell suspension was dispensed into a 96-well plate using EMEM (Invitrogen) medium containing 10 % FBS, followed by incubation in a cell incubator at 37 °C and 5 % CO2. For MDA-MB-436 cells, 100 µL of cell suspension was dispensed into a 96-well plate using L-15 (Invitrogen) medium containing 10 % FBS, followed by incubation in a cell incubator at 37 °C and 0 % CO2. The next day, each Example compound dissolved and diluted in DMSO across 9 concentration ranges and a DMSO control group were treated on the cells for 72 hours. After completion of the compound treatment, 100 µL of CellTiter Glo (Promega) reagent was added to each well of the 96-wellplate, followed by shaking for 10 minutes and standing at room temperature for 10 minutes. After inserting the 96-well plate into an Envision plate reader (PerkinElmer), luminescence signals were measured. Relative IC50 values were calculated by fitting a dose-response curve using XL fit (IDBS Ltd) software.
(§5) The breast cancer cell proliferation inhibitory activities of the Example compounds measured by the method described above were evaluated according to the following criteria, and the results are presented in Table 15.

BT-20 cells = test: Breast cancer cell proliferation inhibitory activity, BT-20; assay type: cell-based; details: Homo sapiens, 72 hours, CellTiter Glo, relative IC50
Description: as §4, §5

MDA-MB-436 cells = test: Breast cancer cell proliferation inhibitory activity, MDA-MB-436; assay type: cell-based; details: Homo sapiens, 72 hours, CellTiter Glo, relative IC50
Description: as §4, §5

CDK12 [2] = molecular target: T1, CDK12 (Homo sapiens, UniProt Q9NYV4); test: CDK12 kinase inhibitory activity assay (33P-ATP filter binding); assay type: biochemical
T1 sequence (Q9NYV4 whole entry, species assumed): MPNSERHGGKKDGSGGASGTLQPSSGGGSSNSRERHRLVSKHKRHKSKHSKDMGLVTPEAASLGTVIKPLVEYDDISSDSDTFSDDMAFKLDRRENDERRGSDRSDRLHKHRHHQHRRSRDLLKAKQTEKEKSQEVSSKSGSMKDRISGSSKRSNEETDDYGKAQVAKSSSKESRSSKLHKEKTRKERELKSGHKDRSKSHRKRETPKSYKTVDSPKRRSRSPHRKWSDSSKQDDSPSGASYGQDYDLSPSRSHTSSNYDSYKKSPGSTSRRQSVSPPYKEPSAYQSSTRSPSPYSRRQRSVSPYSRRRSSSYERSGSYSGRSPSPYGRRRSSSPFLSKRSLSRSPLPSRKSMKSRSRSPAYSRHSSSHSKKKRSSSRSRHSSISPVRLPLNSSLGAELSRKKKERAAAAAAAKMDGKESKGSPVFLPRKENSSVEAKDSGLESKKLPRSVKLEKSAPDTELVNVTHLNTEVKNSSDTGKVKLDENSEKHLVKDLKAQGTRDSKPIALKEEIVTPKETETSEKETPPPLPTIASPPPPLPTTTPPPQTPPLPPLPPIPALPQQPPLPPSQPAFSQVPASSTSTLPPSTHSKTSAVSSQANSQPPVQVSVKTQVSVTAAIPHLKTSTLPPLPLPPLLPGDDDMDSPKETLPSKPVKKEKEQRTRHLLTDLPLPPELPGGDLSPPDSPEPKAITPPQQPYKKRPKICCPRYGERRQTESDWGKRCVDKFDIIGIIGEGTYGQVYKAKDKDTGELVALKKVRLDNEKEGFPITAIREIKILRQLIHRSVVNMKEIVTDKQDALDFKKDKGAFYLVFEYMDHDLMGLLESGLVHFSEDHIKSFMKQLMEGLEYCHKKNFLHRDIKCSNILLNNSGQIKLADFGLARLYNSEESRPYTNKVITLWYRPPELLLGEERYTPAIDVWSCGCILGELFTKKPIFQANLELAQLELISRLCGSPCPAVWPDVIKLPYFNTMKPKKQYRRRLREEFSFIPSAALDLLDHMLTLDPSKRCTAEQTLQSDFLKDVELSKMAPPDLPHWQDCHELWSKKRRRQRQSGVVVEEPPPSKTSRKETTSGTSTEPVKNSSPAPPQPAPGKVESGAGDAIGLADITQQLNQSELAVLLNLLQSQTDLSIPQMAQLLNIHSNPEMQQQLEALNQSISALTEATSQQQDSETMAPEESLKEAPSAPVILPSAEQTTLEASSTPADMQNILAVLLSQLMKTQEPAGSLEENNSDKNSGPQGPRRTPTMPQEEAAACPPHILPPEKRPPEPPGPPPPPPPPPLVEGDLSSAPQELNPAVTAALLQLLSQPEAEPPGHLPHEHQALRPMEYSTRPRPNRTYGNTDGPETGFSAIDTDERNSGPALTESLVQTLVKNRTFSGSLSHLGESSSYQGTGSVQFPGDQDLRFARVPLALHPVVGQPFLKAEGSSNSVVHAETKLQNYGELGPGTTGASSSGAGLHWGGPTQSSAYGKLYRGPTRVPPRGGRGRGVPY
T1 sequence (O75909 whole entry partner, species assumed): as the sequence (O75909 whole entry partner, species assumed) above
How it was run: as §3

CDK1 = CDK1 (Homo sapiens, UniProt P06493); test: CDK1 kinase inhibitory activity assay and selectivity over CDK12; assay type: biochemical; details: for IC50: kinase reaction 120 minutes, 33P-gamma-ATP
Sequence of CDK1 (P06493 whole entry, species assumed): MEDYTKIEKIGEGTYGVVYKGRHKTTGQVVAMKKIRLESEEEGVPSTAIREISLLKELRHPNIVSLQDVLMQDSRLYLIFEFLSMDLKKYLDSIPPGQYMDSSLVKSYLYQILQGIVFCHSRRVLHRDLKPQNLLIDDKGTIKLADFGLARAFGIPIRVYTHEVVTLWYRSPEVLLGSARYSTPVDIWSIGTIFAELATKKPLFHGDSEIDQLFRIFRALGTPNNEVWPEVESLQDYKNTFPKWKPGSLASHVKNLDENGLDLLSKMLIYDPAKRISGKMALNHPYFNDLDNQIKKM
Sequence of CDK1 (P14635 whole entry partner, species assumed): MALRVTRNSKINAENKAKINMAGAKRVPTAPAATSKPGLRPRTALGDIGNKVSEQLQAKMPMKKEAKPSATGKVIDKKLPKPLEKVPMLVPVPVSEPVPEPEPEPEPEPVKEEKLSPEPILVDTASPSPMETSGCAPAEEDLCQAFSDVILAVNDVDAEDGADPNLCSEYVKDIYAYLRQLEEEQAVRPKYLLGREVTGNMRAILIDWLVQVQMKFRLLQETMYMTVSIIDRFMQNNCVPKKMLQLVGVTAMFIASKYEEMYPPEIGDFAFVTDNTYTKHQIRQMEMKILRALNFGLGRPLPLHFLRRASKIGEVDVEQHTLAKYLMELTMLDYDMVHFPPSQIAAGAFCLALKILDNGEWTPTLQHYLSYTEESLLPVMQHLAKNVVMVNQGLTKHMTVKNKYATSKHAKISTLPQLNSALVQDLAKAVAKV
Description: (§6) Before initiating the CDK1 and CDK2 kinase reactions, each Example compound was dissolved and diluted in DMSO as a solvent across 9 concentration ranges at room temperature. The diluted solutions were then incubated with a mixture of kinase and substrate (and cofactors, if required) for 20 minutes. Next, radioisotope-labeled ATP (^33P-gamma-ATP) was added to proceed with the kinase reaction at room temperature for 120 minutes. After the reaction was completed, the reaction mixture was transferred to a filter paper that binds the radioisotope-labeled catalytic product (^33P-substrate). Unreacted ^33P-ATP was removed by washing with 0.75 % phosphoric acid, and then the radioactive phosphorylated substrate remaining on the filter paper was measured. Kinase activity data were expressed as a percentage of the kinase activity remaining in the test sample compared to a DMSO control group. The half-maximal inhibitory concentration (IC50) for each kinase was calculated using Prism software.
(§7) The CDK1 and CDK2 kinase inhibitory activities of the Example compounds measured by the above method were evaluated according to the following criteria, and the results are presented in Table 14.

CDK2 = CDK2 (Homo sapiens, UniProt P24941); test: CDK2 kinase inhibitory activity assay and selectivity over CDK12; assay type: biochemical; details: for IC50: kinase reaction 120 minutes, 33P-gamma-ATP
Description: as §6, §7

CDK12 [3] = molecular target: T1, CDK12; test: Cellular CDK12 inhibitory activity assay (Ser2 phosphorylation of RNA polymerase II subunit B1 CTD in MDA-MB-231 cells); assay type: cell-based; design: using MDA-MB-231 breast cancer cells; endogenous in cells; host or cells: MDA-MB-231; details: MDA-MB-231 cells, 6 hours treatment; read-out: pRpbl CTD S2 IC50
How it was run: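 MDA-MB-231 cells in L-15 with 10 % FBS were treated with compound at 9 concentrations for 6 h at 37 °C, 0 % CO2. In-Cell Western read phospho-Ser2 and total RNA polymerase II CTD on a Li-COR Odyssey; IC50 from 4-parameter dose-response fit.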

[4] = kinase reaction 120 minutes, 33P-gamma-ATP, read-out: CDK12 IC50

| Compound | IC50 (CDK13) [nM] | IC50 [1] [nM] | IC50 (BT-20 cells) [nM] | IC50 (CDK1) [nM] | IC50 (CDK2) [nM] | IC50 (CDK12 [3]) [nM] | IC50 (HCC70 cells) [nM] | other results |
| --- | --- | --- | --- | --- | --- | --- | --- | --- |
| N.N.[Cl][Pt][Cl] [Cisplatin, reference compound] |  |  |  |  |  |  |  | IC50 (AGS cells): > 1000 nM; IC50 (SNU-1): > 1000 nM; IC50 (KATO-III cells): > 1000 nM; IC50 (MKN45 cells): > 1000 nM |
| O=C(c1cc(Cc2n[nH]c(=O)c3ccccc23)ccc1F)N1CCN(C(=O)C2CC2)CC1 [Olaparib, reference compound] |  |  | > 1000 |  |  |  | > 1000 | IC50 (MDA-MB-436 cells): > 1000 nM |
| CC(=O)c1c(C)c2cnc(Nc3ccc(N4CCNCC4)cn3)nc2n(C2CCCC2)c1=O [Palbociclib, reference compound] |  |  | > 1000 |  |  |  | > 1000 |  |
| Fc1ccc2nc(CNc3cc(N4CCOCC4)nn4c(C5CC5)cnc34)[nH]c2c1F [Example 23, 3-cyclopropyl-N-((6,7-difluoro-lH-benzo[d]imidazol-2-yl)methyl)-6-morpholinoimidazo[1,2-b]pyridazin-8-amine] | < 100 | 50 to 500 |  | > 1000 | > 1000 | 300 to 3000 |  | IC50 (CDK12 [2]): 100 to 500 nM |

Second part, led by results:

| IC50 (CDK13) [nM] | IC50 [1] [nM] | IC50 (BT-20 cells) [nM] | IC50 (CDK1) [nM] | IC50 (CDK2) [nM] | IC50 (CDK12 [3]) [nM] | Compound | IC50 (HCC70 cells) [nM] | other results |
| --- | --- | --- | --- | --- | --- | --- | --- | --- |
| 100 to 500 | 50 to 500 | 50 to 1000 |  |  |  | Cn1cc(-n2cnc3c(NCc4nc5cc(Cl)c(Cl)cc5[nH]4)nc(N4CCOCC4)nc32)cn1 [SR-4835, reference compound] | 50 to 1000 | IC50 (MDA-MB-436 cells): 50 to 1000 nM |
| < 100 | ≤ 50 |  | > 1000 | > 1000 | < 300 | Cc1cc2nc(CNc3cc(N4CCOCC4)nn4c(C(F)(F)F)cnc34)[nH]c2cc1C [Example 72, N-((5,6-dimethyl-1H-benzo[d]imidazol-2-yl)methyl)-6-morpholino-3-(trifluoromethyl)imidazo[1,2-b]pyridazin-8-amine] |  | IC50 (CDK12 [2]; [4]): < 100 nM; CDK1/CDK12 (CDK1; ratio of CDK1 IC50 to CDK12 IC50): A (CDK1/CDK12 or CDK2/CDK12 > 500-fold); CDK2/CDK12 (CDK2; ratio of CDK2 IC50 to CDK12 IC50): A (CDK1/CDK12 or CDK2/CDK12 > 500-fold) |
| 100 to 500 | ≤ 50 |  | > 1000 | > 1000 | < 300 | N#CC1CCN(c2cc(NCc3nc4cc(Cl)c(Cl)cc4[nH]3)c3ncc(C(F)(F)F)n3n2)CC1 [Example 44, 1-(8-(((5,6-dichloro-1H-benzo[d]imidazol-2-yl)methyl)amino)-3-(trifluoromethyl)imidazo[1,2-b]pyridazin-6-yl)piperidine-4-carbonitrile] |  | IC50 (CDK12 [2]; [4]): 100 to 500 nM |
